Reference: paper PMC11842588, “A first-in-class selective inhibitor of ERK1/2 and ERK5 overcomes drug resistance with a single-molecule strategy” (Signal Transduction and Targeted Therapy, 2025)

Columns and labels:
Experiment in all cases: Kinase profiling
Type in all cases: biochemical
ALK(h) = biological target: T1, ALK(h) (Homo sapiens, UniProt Q9UM73)
T1 construct: purchased Eurofins Cerep SA (KinaseProfiler)
Method: (§1) 380 kinases inhibitory activities of SKLB-D18 were conducted by Eurofins Cerep SA. The result was illustrated by kinase tree (http://www.kinhub.org/kinmap/).

AMPKα1(h) = biological target: T2, AMPKα1(h) (Homo sapiens, UniProt Q13131)
T2 construct: purchased Eurofins Cerep SA (KinaseProfiler)
T2 sequence (Q13131 whole entry): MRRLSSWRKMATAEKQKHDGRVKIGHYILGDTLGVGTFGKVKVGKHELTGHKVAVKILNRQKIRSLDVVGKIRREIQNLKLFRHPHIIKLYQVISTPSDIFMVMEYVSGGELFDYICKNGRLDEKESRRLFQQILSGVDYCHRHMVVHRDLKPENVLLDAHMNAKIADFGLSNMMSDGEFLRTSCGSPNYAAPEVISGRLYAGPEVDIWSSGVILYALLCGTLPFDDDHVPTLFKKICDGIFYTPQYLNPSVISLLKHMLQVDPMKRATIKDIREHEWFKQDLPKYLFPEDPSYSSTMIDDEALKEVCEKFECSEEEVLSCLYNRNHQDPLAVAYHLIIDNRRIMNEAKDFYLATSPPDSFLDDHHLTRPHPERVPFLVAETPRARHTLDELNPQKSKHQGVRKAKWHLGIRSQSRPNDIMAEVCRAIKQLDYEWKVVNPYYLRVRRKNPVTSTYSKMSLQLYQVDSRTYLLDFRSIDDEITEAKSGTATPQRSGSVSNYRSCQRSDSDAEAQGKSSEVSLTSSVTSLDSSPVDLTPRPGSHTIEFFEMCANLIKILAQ
T2 sequence (Q9Y478 whole entry partner): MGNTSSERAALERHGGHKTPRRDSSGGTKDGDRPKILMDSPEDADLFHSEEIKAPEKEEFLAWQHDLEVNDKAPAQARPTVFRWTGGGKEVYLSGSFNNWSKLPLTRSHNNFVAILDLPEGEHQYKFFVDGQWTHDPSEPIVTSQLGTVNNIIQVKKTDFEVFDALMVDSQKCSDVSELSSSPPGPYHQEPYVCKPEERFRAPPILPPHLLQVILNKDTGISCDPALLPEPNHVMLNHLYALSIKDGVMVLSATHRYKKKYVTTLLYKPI
T2 sequence (P54619 whole entry partner): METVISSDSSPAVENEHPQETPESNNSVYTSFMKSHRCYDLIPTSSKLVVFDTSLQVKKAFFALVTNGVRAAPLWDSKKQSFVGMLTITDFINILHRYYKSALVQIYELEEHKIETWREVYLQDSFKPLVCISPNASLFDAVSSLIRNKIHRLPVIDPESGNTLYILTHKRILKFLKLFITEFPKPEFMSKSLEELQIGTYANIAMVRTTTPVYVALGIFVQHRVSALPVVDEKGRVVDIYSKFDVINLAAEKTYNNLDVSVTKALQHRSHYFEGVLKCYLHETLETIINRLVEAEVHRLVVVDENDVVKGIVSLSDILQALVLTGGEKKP
Method: as §1

Abl(h) = biological target: T3, Abl(h) (Homo sapiens, UniProt P00519)
T3 construct: purchased Eurofins Cerep SA (KinaseProfiler)
T3 sequence (P00519 whole entry): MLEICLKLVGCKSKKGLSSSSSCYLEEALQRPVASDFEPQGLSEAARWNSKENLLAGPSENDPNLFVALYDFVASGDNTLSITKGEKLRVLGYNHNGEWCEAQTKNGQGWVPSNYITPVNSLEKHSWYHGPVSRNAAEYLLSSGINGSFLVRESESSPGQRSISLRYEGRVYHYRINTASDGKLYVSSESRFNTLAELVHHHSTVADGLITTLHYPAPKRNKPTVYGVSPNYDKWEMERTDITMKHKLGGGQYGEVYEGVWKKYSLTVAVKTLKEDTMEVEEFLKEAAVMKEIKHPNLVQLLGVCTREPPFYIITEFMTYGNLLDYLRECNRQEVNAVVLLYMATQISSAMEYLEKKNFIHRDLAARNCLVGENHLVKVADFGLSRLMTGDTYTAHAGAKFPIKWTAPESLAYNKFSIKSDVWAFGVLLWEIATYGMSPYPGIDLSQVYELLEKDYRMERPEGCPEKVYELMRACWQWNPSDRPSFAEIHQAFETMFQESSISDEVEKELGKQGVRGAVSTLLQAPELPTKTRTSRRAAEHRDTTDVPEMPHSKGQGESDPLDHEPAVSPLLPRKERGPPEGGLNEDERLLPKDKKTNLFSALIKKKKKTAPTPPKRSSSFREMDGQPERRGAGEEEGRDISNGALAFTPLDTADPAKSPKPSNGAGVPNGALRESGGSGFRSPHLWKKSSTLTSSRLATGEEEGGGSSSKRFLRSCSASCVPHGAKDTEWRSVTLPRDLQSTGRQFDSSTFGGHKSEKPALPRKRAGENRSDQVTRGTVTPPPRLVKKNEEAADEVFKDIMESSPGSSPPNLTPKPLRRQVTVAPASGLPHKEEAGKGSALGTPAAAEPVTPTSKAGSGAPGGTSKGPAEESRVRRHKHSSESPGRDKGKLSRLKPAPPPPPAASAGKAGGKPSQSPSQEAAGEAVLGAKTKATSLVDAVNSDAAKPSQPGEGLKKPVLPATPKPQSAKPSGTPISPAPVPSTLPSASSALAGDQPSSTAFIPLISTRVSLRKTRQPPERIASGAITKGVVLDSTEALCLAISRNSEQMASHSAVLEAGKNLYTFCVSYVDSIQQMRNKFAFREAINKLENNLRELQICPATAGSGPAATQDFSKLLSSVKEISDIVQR
Method: as §1

Bmx(h) = biological target: T4, Bmx(h) (Homo sapiens, UniProt P51813)
T4 construct: purchased Eurofins Cerep SA (KinaseProfiler)
Method: as §1

BrSK1(h) = biological target: T5, BrSK1(h) (Homo sapiens, UniProt Q8TDC3)
T5 construct: purchased Eurofins Cerep SA (KinaseProfiler)
Method: as §1

CLK4(h) = biological target: T6, CLK4(h) (Homo sapiens, UniProt Q9HAZ1)
T6 construct: purchased Eurofins Cerep SA (KinaseProfiler)
Method: as §1

ChaK1(h) = biological target: T7, ChaK1(h) (Homo sapiens, UniProt Q96QT4)
T7 construct: purchased Eurofins Cerep SA (KinaseProfiler)
T7 sequence (Q96QT4 whole entry): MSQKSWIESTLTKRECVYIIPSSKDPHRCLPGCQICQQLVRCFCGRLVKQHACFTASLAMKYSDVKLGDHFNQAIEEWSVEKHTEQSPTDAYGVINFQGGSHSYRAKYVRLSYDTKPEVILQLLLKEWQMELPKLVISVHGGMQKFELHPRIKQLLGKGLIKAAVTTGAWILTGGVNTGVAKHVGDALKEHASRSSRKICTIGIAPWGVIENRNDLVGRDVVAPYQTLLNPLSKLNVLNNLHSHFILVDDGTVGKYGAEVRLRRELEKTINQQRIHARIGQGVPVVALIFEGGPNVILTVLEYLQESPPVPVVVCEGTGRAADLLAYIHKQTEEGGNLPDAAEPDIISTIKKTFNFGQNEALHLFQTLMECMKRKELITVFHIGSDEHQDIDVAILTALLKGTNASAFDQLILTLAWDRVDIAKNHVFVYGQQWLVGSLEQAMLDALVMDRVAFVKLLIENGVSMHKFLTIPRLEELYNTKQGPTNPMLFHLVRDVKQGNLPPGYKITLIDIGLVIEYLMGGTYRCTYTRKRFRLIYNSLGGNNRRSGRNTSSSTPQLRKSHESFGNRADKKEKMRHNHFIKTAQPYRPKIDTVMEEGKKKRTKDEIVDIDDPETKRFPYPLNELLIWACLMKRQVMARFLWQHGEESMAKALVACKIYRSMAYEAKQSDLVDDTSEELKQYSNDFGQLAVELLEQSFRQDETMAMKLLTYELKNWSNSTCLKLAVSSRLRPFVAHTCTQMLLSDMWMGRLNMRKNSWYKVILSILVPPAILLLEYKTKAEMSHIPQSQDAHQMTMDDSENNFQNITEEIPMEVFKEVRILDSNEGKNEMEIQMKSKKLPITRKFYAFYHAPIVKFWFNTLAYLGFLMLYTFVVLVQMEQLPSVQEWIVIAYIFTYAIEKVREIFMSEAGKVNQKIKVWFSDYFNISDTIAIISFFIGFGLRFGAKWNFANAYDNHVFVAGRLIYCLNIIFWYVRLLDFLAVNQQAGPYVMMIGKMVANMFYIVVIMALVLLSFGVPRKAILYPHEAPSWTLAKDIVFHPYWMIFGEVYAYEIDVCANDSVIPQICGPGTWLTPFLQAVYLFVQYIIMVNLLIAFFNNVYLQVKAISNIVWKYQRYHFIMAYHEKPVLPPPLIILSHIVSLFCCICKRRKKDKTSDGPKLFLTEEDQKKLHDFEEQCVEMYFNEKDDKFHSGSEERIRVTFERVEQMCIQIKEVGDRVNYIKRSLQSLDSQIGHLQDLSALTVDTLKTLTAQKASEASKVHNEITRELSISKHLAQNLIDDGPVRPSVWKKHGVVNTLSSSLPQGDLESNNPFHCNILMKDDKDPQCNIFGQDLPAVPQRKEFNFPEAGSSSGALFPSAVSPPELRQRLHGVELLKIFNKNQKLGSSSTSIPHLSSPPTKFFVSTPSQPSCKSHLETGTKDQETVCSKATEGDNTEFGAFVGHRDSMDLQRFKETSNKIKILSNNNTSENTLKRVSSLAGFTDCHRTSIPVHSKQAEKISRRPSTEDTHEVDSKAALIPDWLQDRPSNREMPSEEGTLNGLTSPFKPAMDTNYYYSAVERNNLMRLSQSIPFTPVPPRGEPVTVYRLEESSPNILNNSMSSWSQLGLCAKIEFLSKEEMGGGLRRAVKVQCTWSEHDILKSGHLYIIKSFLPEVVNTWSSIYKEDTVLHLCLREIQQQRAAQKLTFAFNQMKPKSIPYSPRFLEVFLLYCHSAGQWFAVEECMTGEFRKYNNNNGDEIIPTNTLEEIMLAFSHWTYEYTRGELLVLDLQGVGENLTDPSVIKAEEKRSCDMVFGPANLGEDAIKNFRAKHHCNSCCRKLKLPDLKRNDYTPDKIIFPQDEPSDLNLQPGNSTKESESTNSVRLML
Method: as §1

DCAMKL1(h) = biological target: T8, DCAMKL1(h) (Homo sapiens, UniProt O15075)
T8 construct: purchased Eurofins Cerep SA (KinaseProfiler)
Method: as §1

DRAK2(h) = biological target: T9, DRAK2(h) (Homo sapiens, UniProt O94768)
T9 construct: purchased Eurofins Cerep SA (KinaseProfiler)
Method: as §1

Flt3(h) = biological target: T10, Flt3(h) (Homo sapiens, UniProt P36888)
T10 construct: purchased Eurofins Cerep SA (KinaseProfiler)
Method: as §1

Flt4(h) = biological target: T11, Flt4(h) (Homo sapiens, UniProt P35916)
T11 construct: purchased Eurofins Cerep SA (KinaseProfiler)
Method: as §1

JAK3(h) = biological target: T12, JAK3(h) (Homo sapiens, UniProt P52333)
T12 construct: purchased Eurofins Cerep SA (KinaseProfiler)
Method: as §1

JNK1α1(h) = biological target: T13, JNK1α1(h) (Homo sapiens, UniProt P45983)
T13 construct: purchased Eurofins Cerep SA (KinaseProfiler)
Method: as §1

LIMK1(h) = biological target: T14, LIMK1(h) (Homo sapiens, UniProt P53667)
T14 construct: purchased Eurofins Cerep SA (KinaseProfiler)
Method: as §1

LOK(h) = biological target: T15, LOK(h) (Homo sapiens, UniProt O94804)
T15 construct: purchased Eurofins Cerep SA (KinaseProfiler)
Method: as §1

Lck(h) = biological target: T16, Lck(h) (Homo sapiens, UniProt P06239)
T16 construct: purchased Eurofins Cerep SA (KinaseProfiler)
Method: as §1

MAP4K4(h) = biological target: T17, MAP4K4(h) (Homo sapiens, UniProt O95819)
T17 construct: purchased Eurofins Cerep SA (KinaseProfiler)
Method: as §1

MAPK1(h) = biological target: T18, MAPK1(h) (Homo sapiens, UniProt P28482)
T18 construct: purchased Eurofins Cerep SA (KinaseProfiler)
Method: as §1

MLK3(h) = biological target: T19, MLK3(h) (Homo sapiens, UniProt Q16584)
T19 construct: purchased Eurofins Cerep SA (KinaseProfiler)
T19 sequence (Q16584 whole entry): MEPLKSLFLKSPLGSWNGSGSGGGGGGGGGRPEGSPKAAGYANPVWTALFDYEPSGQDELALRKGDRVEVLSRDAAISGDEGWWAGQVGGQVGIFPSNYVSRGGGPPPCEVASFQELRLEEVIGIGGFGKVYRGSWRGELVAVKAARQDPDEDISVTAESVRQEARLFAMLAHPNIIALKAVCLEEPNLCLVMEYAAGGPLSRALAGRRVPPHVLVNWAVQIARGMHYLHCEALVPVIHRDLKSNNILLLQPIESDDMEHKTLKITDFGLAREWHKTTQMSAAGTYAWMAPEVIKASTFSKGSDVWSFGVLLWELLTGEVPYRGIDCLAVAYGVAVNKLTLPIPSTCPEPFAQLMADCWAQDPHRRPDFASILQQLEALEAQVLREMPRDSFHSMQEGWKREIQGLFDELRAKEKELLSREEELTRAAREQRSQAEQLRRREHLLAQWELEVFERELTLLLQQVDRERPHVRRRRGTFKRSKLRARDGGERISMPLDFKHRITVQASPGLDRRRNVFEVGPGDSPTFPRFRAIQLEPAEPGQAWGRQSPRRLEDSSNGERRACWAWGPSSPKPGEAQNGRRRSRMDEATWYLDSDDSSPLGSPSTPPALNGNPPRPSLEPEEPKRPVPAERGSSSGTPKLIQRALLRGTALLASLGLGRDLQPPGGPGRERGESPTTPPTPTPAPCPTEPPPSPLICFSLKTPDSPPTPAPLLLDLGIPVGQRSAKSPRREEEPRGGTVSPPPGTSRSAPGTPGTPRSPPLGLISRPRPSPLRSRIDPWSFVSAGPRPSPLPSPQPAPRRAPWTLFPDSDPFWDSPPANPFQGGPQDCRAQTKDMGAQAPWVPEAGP
Method: as §1

MRCKα(h) = biological target: T20, MRCKα(h) (Homo sapiens, UniProt Q5VT25)
T20 construct: purchased Eurofins Cerep SA (KinaseProfiler)
Method: as §1

MRCKβ(h) = biological target: T21, MRCKβ(h) (Homo sapiens, UniProt Q9Y5S2)
T21 construct: purchased Eurofins Cerep SA (KinaseProfiler)
Method: as §1

MSK1(h) = biological target: T22, MSK1(h) (Homo sapiens, UniProt O75582)
T22 construct: purchased Eurofins Cerep SA (KinaseProfiler)
Method: as §1

PASK(h) = biological target: T23, PASK(h) (Homo sapiens, UniProt Q96RG2)
T23 construct: purchased Eurofins Cerep SA (KinaseProfiler)
Method: as §1

PDGFRβ(h) = biological target: T24, PDGFRβ(h) (Homo sapiens, UniProt P09619)
T24 construct: purchased Eurofins Cerep SA (KinaseProfiler)
Method: as §1

PDK1(h) = biological target: T25, PDK1(h) (Homo sapiens, UniProt O15530)
T25 construct: purchased Eurofins Cerep SA (KinaseProfiler)
Method: as §1

PKCβI(h) = biological target: T26, PKCβI(h) (Homo sapiens, UniProt P05771)
T26 construct: purchased Eurofins Cerep SA (KinaseProfiler)
Method: as §1

PKR(h) = biological target: T27, PKR(h) (Homo sapiens, UniProt P19525)
T27 construct: purchased Eurofins Cerep SA (KinaseProfiler)
Method: as §1

PTK5(h) = biological target: T28, PTK5(h) (Homo sapiens, UniProt P42685)
T28 construct: purchased Eurofins Cerep SA (KinaseProfiler)
Method: as §1

PhKγ1(h) = biological target: T29, PhKγ1(h) (Homo sapiens, UniProt Q16816)
T29 construct: purchased Eurofins Cerep SA (KinaseProfiler)
Method: as §1

ROCK-I(h) = biological target: T30, ROCK-I(h) (Homo sapiens, UniProt Q13464)
T30 construct: purchased Eurofins Cerep SA (KinaseProfiler)
Method: as §1

Rse(h) = biological target: T31, Rse(h) (Homo sapiens, UniProt Q06418)
T31 construct: purchased Eurofins Cerep SA (KinaseProfiler)
Method: as §1

Rsk2(h) = biological target: T32, Rsk2(h) (Homo sapiens, UniProt P51812)
T32 construct: purchased Eurofins Cerep SA (KinaseProfiler)
Method: as §1

SIK2(h) = biological target: T33, SIK2(h) (Homo sapiens, UniProt Q9H0K1)
T33 construct: purchased Eurofins Cerep SA (KinaseProfiler)
Method: as §1

STK32C(h) = biological target: T34, STK32C(h) (Homo sapiens, UniProt Q86UX6)
T34 construct: purchased Eurofins Cerep SA (KinaseProfiler)
Method: as §1

STK33(h) = biological target: T35, STK33(h) (Homo sapiens, UniProt Q9BYT3)
T35 construct: purchased Eurofins Cerep SA (KinaseProfiler)
Method: as §1

Snk(h) = biological target: T36, Snk(h) (Homo sapiens, UniProt Q9NYY3)
T36 construct: purchased Eurofins Cerep SA (KinaseProfiler)
Method: as §1

TAO1(h) = biological target: T37, TAO1(h) (Homo sapiens, UniProt Q7L7X3)
T37 construct: purchased Eurofins Cerep SA (KinaseProfiler)
Method: as §1

TSSK4(h) = biological target: T38, TSSK4(h) (Homo sapiens, UniProt Q6SA08)
T38 construct: purchased Eurofins Cerep SA (KinaseProfiler)
Method: as §1

TTBK1(h) = biological target: T39, TTBK1(h) (Homo sapiens, UniProt Q5TCY1)
T39 construct: purchased Eurofins Cerep SA (KinaseProfiler)
Method: as §1

c-RAF(h) = biological target: T40, c-RAF(h) (Homo sapiens, UniProt P04049)
T40 construct: purchased Eurofins Cerep SA (KinaseProfiler)
Method: as §1

mTOR(h) = biological target: T41, mTOR(h) (Homo sapiens, UniProt P42345)
T41 construct: purchased Eurofins Cerep SA (KinaseProfiler)
Method: as §1

Question: What does the source list for `CN(C)Cc1cccc(Nc2ncc(Cl)c(-c3csc(C(=O)NN4CCOCC4)c3)n2)c1` [SKLB-D18, 4-(5-chloro-2-((3-((dimethylamino)methyl)phenyl)amino)pyrimidin-4-yl)-N-morpholinothiophene-2-carboxamide]?
Answer: inhibition at 1 µM (ALK(h)): 13%; inhibition at 1 µM (AMPKα1(h)): 61%; inhibition at 1 µM (Abl(h)): 45%; inhibition at 1 µM (Bmx(h)): 46%; inhibition at 1 µM (BrSK1(h)): 2%; inhibition at 1 µM (CLK4(h)): 68%; inhibition at 1 µM (ChaK1(h)): 0%; inhibition at 1 µM (DCAMKL1(h)): 17%; inhibition at 1 µM (DRAK2(h)): 29%; inhibition at 1 µM (Flt3(h)): 55%; inhibition at 1 µM (Flt4(h)): 63%; inhibition at 1 µM (JAK3(h)): 67%; inhibition at 1 µM (JNK1α1(h)): 40%; inhibition at 1 µM (LIMK1(h)): 20%; inhibition at 1 µM (LOK(h)): 2%; inhibition at 1 µM (Lck(h)): 63%; inhibition at 1 µM (MAP4K4(h)): 14%; inhibition at 1 µM (MAPK1(h)): 94%; inhibition at 1 µM (MLK3(h)): 69%; inhibition at 1 µM (MRCKα(h)): 2%; inhibition at 1 µM (MRCKβ(h)): 15%; inhibition at 1 µM (MSK1(h)): 17%; inhibition at 1 µM (PASK(h)): 13%; inhibition at 1 µM (PDGFRβ(h)): 21%; inhibition at 1 µM (PDK1(h)): 42%; inhibition at 1 µM (PKCβI(h)): 12%; inhibition at 1 µM (PKR(h)): 26%; inhibition at 1 µM (PTK5(h)): 35%; inhibition at 1 µM (PhKγ1(h)): 63%; inhibition at 1 µM (ROCK-I(h)): 10%; inhibition at 1 µM (Rse(h)): 12%; inhibition at 1 µM (Rsk2(h)): 41%; inhibition at 1 µM (SIK2(h)): 67%; inhibition at 1 µM (STK32C(h)): 1%; inhibition at 1 µM (STK33(h)): 63%; inhibition at 1 µM (Snk(h)): 28%; inhibition at 1 µM (TAO1(h)): 62%; inhibition at 1 µM (TSSK4(h)): 36%; inhibition at 1 µM (TTBK1(h)): -5%; inhibition at 1 µM (c-RAF(h)): 65%; inhibition at 1 µM (mTOR(h)): -4%
